SMILES strings stand for the structures.

This note sets out measurements from patent US11292788B2, “IL-17 and IFN-gamma inhibition for the treatment of autoimmune diseases and chronic inflammation” (Immunic AG, priority 2017, dated 2022).

The subject of one data set is IL-17A. As to the kind of experiment: Cytokine assay: IL-17A production by human PBMC stimulated with PHA. Format: cell-based. Conditions: Homo sapiens, PBMC, IC50 class, read-out: IL-17A Inhib. In a few lines: (§1)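 Compounds were titrated semilogarithmically for IC50, or screened at 10, 1, 0.1 and 0.01 μM, on healthy-donor PBMC stimulated for 48 h with 2 μg/ml PHA at 1×10^5 cells/well. Cytokines in culture supernatants were then quantified by ELISA or Luminex bead assay.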

Another data set concerns INF-γ. As to the kind of experiment: Cytokine assay: INF-γ production by human PBMC stimulated with PHA. Format: cell-based. Conditions: Homo sapiens, PBMC, IC50 class, read-out: IFN-gamma Inhib. The essentials:
as §1

A short description of data set [1]: Microsomal stability: incubation with human liver microsomes, residual parent compound by HPLC-MS/MS. Format: in vitro ADME. Conditions: human liver microsomes 0.5 mg/ml, compound 1 μM, pH 7.4, 37° C., up to 60 min; read-out: t1/2 hLM. The method, then:
Metabolic stability of compounds of the present invention was determined by incubation with human liver microsomes and subsequent determination of residual amount of the respective compound (“parent compound”) by HPLC-MS/MS.
In order to achieve this, in a final reaction volume of 1000 μl, each compound was incubated at a final concentration of 1 μM with 0.5 mg/ml human liver microsomes (HLM Pool 50 Donors, 20 mg/ml, BD Gentest, #452156, LotNr 88114) in 0.1 M Potassium phosphate buffer at pH 7.4, with a cofactor in form of a NADPH regenerating system (Promega, #V9510) according to the manufacturers' specifications. The final DMSO concentration in each sample was 0.4%. The incubation was performed at 37° C. under shaking conditions (Thermomixer, 1400 rpm) for different time intervals up to 60 min. To stop the reaction, for each time point 200 μl of the reaction were taken out and 200 μl ice-cold acetonitrile was added. Then, the samples were centrifuged (4° C., 14000*g for 15 min). The supernatant was analyzed for residual parent compound concentration and scanned for metabolites using HPLC-MS/MS. By using optimized MS methods for each compound, the peak area under curve for the compound specific signal is determined. The change of the peak areas over the assay time of 60 min resemble the remaining parent compound in % of T0. By these points, a balancing line was set. The half-time, as well as the clearance, can then be calculated on the basis of the slope.
(In general: Microsomes from liver hold many membrane-bound enzymes, among them those of drug oxidation.)

The next data set has as its system IL-17F. As to the kind of experiment: Cytokine assay: IL-17F production by human PBMC stimulated with PHA. Format: cell-based. Conditions: Homo sapiens, PBMC, IC50 class, read-out: IL-17F Inhib. The essentials:
as §1

As to `CCC(O)Cn1ncc(-c2onc(-c3c(F)cccc3Cl)c2-c2nccs2)c1C(F)(F)F` (racemic) [Example 6, 1-{4-[3-(2-chloro-6-fluorophenyl)-4-(1,3-thiazol-2-yl)-1,2-oxazol-5-yl]-5-(trifluoromethyl)-1H-pyrazol-1-yl}butan-2-ol], the IC50 with IL-17A, in the data set with INF-γ and in the data set on IL-17F was < 0.05 µM in each case. Further, in data set [1], the half-life at 1 μM was in the range of 10 to 40 min.

Consider `OC(Cn1ncc(-c2onc(-c3c(F)cccc3Cl)c2-c2nccs2)c1C(F)(F)F)C(F)(F)F` (racemic) [Example 7, 3-{4-[3-(2-chloro-6-fluorophenyl)-4-(1,3-thiazol-2-yl)-1,2-oxazol-5-yl]-5-(trifluoromethyl)-1H-pyrazol-1-yl}-1,1,1-trifluoropropan-2-ol], for which the IC50 in the data set with IL-17A, with INF-γ and in the data set on IL-17F was < 0.05 µM throughout. Also, in data set [1], the half-life at 1 μM was in the range of 10 to 40 min.

In the case of `CC(C)(O)CCn1ncc(-c2onc(-c3c(F)cccc3Cl)c2-c2nccs2)c1C(F)(F)F` [Example 3, 4-(4-(3-(2-chloro-6-fluorophenyl)-4-(thiazol-2-yl)isoxazol-5-yl)-5-(trifluoromethyl)-1H-pyrazol-1-yl)-2-methylbutan-2-ol], the IC50 in the data set on IL-17A, in the data set on INF-γ and in the data set on IL-17F was < 0.05 µM in each case. In addition, in data set [1], the half-life at 1 μM is > 100 min.

Take `C[C@@H](O)Cn1ncc(-c2onc(-c3c(F)cccc3Cl)c2-c2nccs2)c1C(F)(F)F` [Example 4, (2R)-1-(4-(3-(2-chloro-6-fluorophenyl)-4-(thiazol-2-yl)isoxazol-5-yl)-5-(trifluoromethyl)-1H-pyrazol-1-yl)propan-2-ol]: the IC50 in the data set on IL-17A, in the data set with INF-γ and in the data set with IL-17F was < 0.05 µM in each case. Moreover, the half-life at 1 μM in data set [1] lay within 10 to 40 min.

For the molecule `C[C@H](O)Cn1ncc(-c2onc(-c3c(F)cccc3Cl)c2-c2nccs2)c1C(F)(F)F` [Example 5, (2S)-1-(4-(3-(2-chloro-6-fluorophenyl)-4-(thiazol-2-yl)isoxazol-5-yl)-5-(trifluoromethyl)-1H-pyrazol-1-yl)propan-2-ol], the results for the IC50 in the data set on IL-17A, with INF-γ and in the data set with IL-17F were < 0.05 µM, < 0.05 µM and 0.05 to 0.5 µM, respectively. Moreover, the half-life at 1 μM in data set [1] was in the range of 40 to 100 min.

For the molecule `CCOC(=O)c1c(-c2c(F)cccc2Cl)noc1-c1cnn(C[C@@H](O)C(F)(F)F)c1C(F)(F)F` [Example 16, ethyl 3-(2-chloro-6-fluorophenyl)-5-{1-[(2R)-3,3,3-trifluoro-2-hydroxypropyl]-5-(trifluoromethyl)-1H-pyrazol-4-yl}-1,2-oxazole-4-carboxylate], the IC50 in the data set with IL-17A, in the data set on INF-γ and with IL-17F was < 0.05 µM each time. Moreover, in data set [1], the half-life at 1 μM lay within 2 to 9.99 min.

On to `C[C@@H](O)Cn1ncc(-c2onc(-c3cccc(C(=O)N4CCOCC4)c3Cl)c2-c2ccncn2)c1C(F)(F)F` [Example 154, (R)-(2-chloro-3-(5-(1-(2-hydroxypropyl)-5-(trifluoromethyl)-1H-pyrazol-4-yl)-4-(pyrimidin-4-yl)isoxazol-3-yl)phenyl) (morpholino)methanone], for which the IC50 in the data set with IL-17A was 0.5 to 5 µM; in the data set with INF-γ it was 0.05 to 0.5 µM; in the data set with IL-17F, ≥ 5 µM.

`C[C@@H](O)Cn1ncc(-c2onc(-c3cccc(C(=O)NC4CCC4)c3Cl)c2-c2ccncn2)c1C(F)(F)F` [Example 155, (R)-2-chloro-N-cyclobutyl-3-(5-(1-(2-hydroxypropyl)-5-(trifluoromethyl)-1H-pyrazol-4-yl)-4-(pyrimidin-4-yl)isoxazol-3-yl)benzamide]: the IC50 in the data set with IL-17A, with INF-γ and with IL-17F was 0.05 to 0.5 µM throughout.

In the case of `CCNC(=O)c1cccc(-c2noc(-c3cnn(C[C@@H](C)O)c3C(F)(F)F)c2-c2ccncn2)c1Cl` [Example 156, (R)-2-chloro-N-ethyl-3-(5-(1-(2-hydroxypropyl)-5-(trifluoromethyl)-1H-pyrazol-4-yl)-4-(pyrimidin-4-yl)isoxazol-3-yl)benzamide], the results for the IC50 in the data set with IL-17A, in the data set with INF-γ and with IL-17F were ≥ 5 µM, 0.5 to 5 µM and ≥ 5 µM, respectively.

Consider `CC(C)NC(=O)c1cccc(-c2noc(-c3cnn(C[C@@H](C)O)c3C(F)(F)F)c2-c2ccncn2)c1Cl` [Example 157, (R)-2-chloro-3-(5-(1-(2-hydroxypropyl)-5-(trifluoromethyl)-1H-pyrazol-4-yl)-4-(pyrimidin-4-yl)isoxazol-3-yl)-N-isopropylbenzamide], for which the results for the IC50 in the data set on IL-17A, with INF-γ and with IL-17F were 0.5 to 5 µM, 0.05 to 0.5 µM and 0.5 to 5 µM, respectively.

On to `C[C@@H](O)Cn1ncc(-c2onc(-c3cccc(C(=O)N4CCC4)c3Cl)c2-c2ccncn2)c1C(F)(F)F` [Example 158, (R)-(azetidin-1-yl)(2-chloro-3-(5-(1-(2-hydroxypropyl)-5-(trifluoromethyl)-1H-pyrazol-4-yl)-4-(pyrimidin-4-yl)isoxazol-3-yl)phenyl)methanone], for which the IC50 in the data set with IL-17A, in the data set with INF-γ and in the data set on IL-17F was 0.05 to 0.5 µM each time.

Consider `C[C@@H](O)Cn1ncc(-c2onc(-c3cccc(C(=O)NC4CC4)c3Cl)c2-c2ccncn2)c1C(F)(F)F` [Example 159, (R)-2-chloro-N-cyclopropyl-3-(5-(1-(2-hydroxypropyl)-5-(trifluoromethyl)-1H-pyrazol-4-yl)-4-(pyrimidin-4-yl)isoxazol-3-yl)benzamide], for which the IC50 was in the range of 0.5 to 5 µM in the data set on IL-17A, 0.05 to 0.5 µM in the data set with INF-γ and 0.5 to 5 µM in the data set with IL-17F.

In the case of `COc1c(C(=O)NC2CC2)cccc1-c1noc(-c2cnn(C[C@@H](C)O)c2C(F)(F)F)c1-c1ccncn1` [Example 161, (R)—N-cyclopropyl-3-(5-(1-(2-hydroxypropyl)-5-(trifluoromethyl)-1H-pyrazol-4-yl)-4-(pyrimidin-4-yl)isoxazol-3-yl)-2-methoxybenzamide], the IC50 in the data set with IL-17A is ≥ 5 µM; in the data set on INF-γ, 0.5 to 5 µM; in the data set with IL-17F it was ≥ 5 µM.

Turning to `COc1c(C(=O)NC(C)C)cccc1-c1noc(-c2cnn(C[C@@H](C)O)c2C(F)(F)F)c1-c1ccncn1` [Example 162, (R)-3-(5-(1-(2-hydroxypropyl)-5-(trifluoromethyl)-1H-pyrazol-4-yl)-4-(pyrimidin-4-yl)isoxazol-3-yl)-N-isopropyl-2-methoxybenzamide], the IC50 with IL-17A is 0.5 to 5 µM; in the data set with INF-γ, 0.05 to 0.5 µM; with IL-17F it was ≥ 5 µM.

With `COc1c(C(=O)N2CCC2)cccc1-c1noc(-c2cnn(C[C@@H](C)O)c2C(F)(F)F)c1-c1ccncn1` [Example 163, (R)-(azetidin-1-yl)(3-(5-(1-(2-hydroxypropyl)-5-(trifluoromethyl)-1H-pyrazol-4-yl)-4-(pyrimidin-4-yl)isoxazol-3-yl)-2-methoxyphenyl)methanone], the IC50 is ≥ 5 µM in the data set on IL-17A, 0.5 to 5 µM with INF-γ and ≥ 5 µM in the data set on IL-17F.

With `COc1c(C(=O)NC2CCC2)cccc1-c1noc(-c2cnn(C[C@@H](C)O)c2C(F)(F)F)c1-c1ccncn1` [Example 164, (R)—N-cyclobutyl-3-(5-(1-(2-hydroxypropyl)-5-(trifluoromethyl)-1H-pyrazol-4-yl)-4-(pyrimidin-4-yl)isoxazol-3-yl)-2-methoxybenzamide], the IC50 with IL-17A, in the data set with INF-γ and in the data set on IL-17F was 0.5 to 5 µM throughout.

`CCNC(=O)c1cccc(-c2noc(-c3cnn(C[C@@H](C)O)c3C(F)(F)F)c2-c2ccncn2)c1OC` [Example 165, (R)—N-ethyl-3-(5-(1-(2-hydroxypropyl)-5-(trifluoromethyl)-1H-pyrazol-4-yl)-4-(pyrimidin-4-yl)isoxazol-3-yl)-2-methoxybenzamide]: the IC50 in the data set with IL-17A is 0.5 to 5 µM; in the data set with INF-γ, 0.5 to 5 µM; in the data set on IL-17F it was ≥ 5 µM.

As for `C[C@@H](O)Cn1ncc(-c2onc(-c3cccc(C(=O)NC4CCC4)c3)c2-c2ccncn2)c1C(F)(F)F` [Example 166, (R)—N-cyclobutyl-3-(5-(1-(2-hydroxypropyl)-5-(trifluoromethyl)-1H-pyrazol-4-yl)-4-(pyrimidin-4-yl)isoxazol-3-yl)benzamide], the IC50 is 0.5 to 5 µM with IL-17A, 0.5 to 5 µM with INF-γ and ≥ 5 µM with IL-17F.

On to `CC(C)NC(=O)c1cccc(-c2noc(-c3cnn(C[C@@H](C)O)c3C(F)(F)F)c2-c2ccncn2)c1` [Example 167, (R)-3-(5-(1-(2-hydroxypropyl)-5-(trifluoromethyl)-1H-pyrazol-4-yl)-4-(pyrimidin-4-yl)isoxazol-3-yl)-N-isopropylbenzamide], for which the IC50 in the data set on IL-17A is ≥ 5 µM; in the data set on INF-γ it was 0.5 to 5 µM; in the data set on IL-17F it was ≥ 5 µM.
